Measurements from ChEMBL document CHEMBL5120754, “Structural modification aimed for improving solubility of lead compounds in early phase drug discovery” (Bioorg Med Chem, 2022).
pEC50, pIC50: −log10 of the molar value. Converted amounts (≈) assume the structure as drawn.

What was measured:
physchem [1] = conditions: buffer
[2] = Lipophilicity, logD of compound; assay type: physicochemical; conditions: octanol/water
[3] = buffer
physchem [4] = conditions: octanol/water
[5] = Permeability of compound in human Caco-2 cells; assay type: ADME, cell-based; conditions: read-out: permeability
[6] = test system: Human immunodeficiency virus 1; experiment: Antiviral activity against HIV-1; assay type: functional, organism-based
[7] = test system: Mycobacterium tuberculosis; experiment: microbe, parasite or virus in culture
Plasmepsin II = Plasmepsin II (Plasmodium falciparum, UniProt P46925); experiment: Inhibition of Plasmodium falciparum 3D7 plasmepsin II
Sequence of Plasmepsin II (P46925 whole entry): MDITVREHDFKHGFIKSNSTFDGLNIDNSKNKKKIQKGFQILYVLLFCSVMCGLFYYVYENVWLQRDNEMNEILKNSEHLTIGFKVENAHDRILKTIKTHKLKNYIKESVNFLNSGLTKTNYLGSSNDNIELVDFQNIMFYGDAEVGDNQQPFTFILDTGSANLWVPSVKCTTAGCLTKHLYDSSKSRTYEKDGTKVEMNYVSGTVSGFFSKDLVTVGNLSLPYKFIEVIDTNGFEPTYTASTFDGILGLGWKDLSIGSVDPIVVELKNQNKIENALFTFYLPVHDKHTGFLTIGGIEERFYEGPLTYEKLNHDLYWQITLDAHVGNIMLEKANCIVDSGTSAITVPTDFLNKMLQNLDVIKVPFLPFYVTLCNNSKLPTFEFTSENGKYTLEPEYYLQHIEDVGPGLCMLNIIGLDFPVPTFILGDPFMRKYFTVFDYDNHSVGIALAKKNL

MCF7 = experiment: Antiproliferative activity against ER-positive human MCF7 cells after 48 hrs by MTT assay; assay type: functional, cell-based; conditions: MCF7, 48 h

Compound | solubility thermodynamic (physchem [1]) | further results
CCn1nc(-c2cccc(Cl)c2)nc2c(=O)n(C)c(=O)nc1-2 | 28.5 µM | –
CCCN(CCOC)c1cc(C)nc2c(-c3ccc(OC)cc3OC)c(C)nn12 | 10000 µg/mL | logD [2]: 2.78
COc1cc2[nH]c(C)c(-c3ccccc3)c(=O)c2cc1Cl | 6 µM | logD [2]: 1.65
CC(=O)NC[C@@H]1OC(=O)N2c3ccc(-c4ccc(C#N)nc4)cc3OC[C@@H]12 | 10 µg/mL | –
C=CC(=O)Nc1cccc(N2C(=O)N(Cc3ccccc3)Cc3cnc(Nc4ccc(N5CCN(C)CC5)cc4OC)nc32)c1 | – | Therm_solubility [3]: 4000 µg/mL
Cc1c(-c2ccc(Cc3ccc(OC(F)(F)F)cc3)cc2)[nH]c2cc(Cl)ccc2c1=O | – | logP (physchem [4]): 6.4
Cc1c(-c2ccc(-c3ccc(OC(F)(F)F)cc3)nc2)[nH]c2ccccc2c1=O | – | logP (physchem [4]): 4.2
CC(C)(C)OC(=O)N1CCN(c2ncc(OCc3ccc(S(C)(=O)=O)cc3)cn2)CC1 | 0.03 µM | –
CC(C)(C)OC(=O)N1CCN(c2ncc(OCc3ccncc3C#N)cn2)CC1 | 24 µM | logD [2]: 3.3
FC(F)(F)c1c(N2CCC(c3ccccc3)CC2)ccn2c(CC3CC3)nnc12 | – | Papp [5]: 12 ×10⁻⁶ cm/s; logP (physchem [4]): 4.6
C/C(=C1/C(=O)Nc2ccc(NC(N)=O)cc21)c1cc(CNC(=O)C2CCNCC2)c[nH]1 | 17 µg/mL | –
CN(C)CCNC(=O)c1cccc(-c2c[nH]c(/C=C3\C(=O)Nc4ccc(NC(N)=O)cc43)c2)c1 | 13 µg/mL | –
COc1ccc(-c2oc3cc(O[C@@H]4O[C@H](CO[C@@H]5O[C@@H](C)[C@H](O)[C@@H](O)[C@H]5O)[C@@H](O)[C@H](O)[C@H]4O)cc(O)c3c(=O)c2Br)cc1O | 100000 µg/mL | logP (physchem [4]): 0.93
O=C(C(=O)N1CCN(C(=O)c2ccccc2)CC1)c1c[nH]c2c(-n3ccnn3)ncc(F)c12 | 7 µg/mL | pEC50 [6]: 11.22
COc1c(C(=O)Nc2ccc(NS(C)(=O)=O)cc2)cc(N2CCC(=O)NC2=O)cc1C(C)(C)C | 1500 µg/mL | –
O=C(Nc1nnc(C2CC2)o1)NC12CC3CC(CC(C3)C1)C2 | 38.3 µg/mL | MIC [7]: 12.5 µg/mL (≈ 41.3 µM)
Cn1cc(NC(=O)NC23CC4CC(CC(C4)C2)C3)cn1 | 41.1 µg/mL | MIC [7]: 50 µg/mL (≈ 182 µM)
Cc1cc(NC(=O)NC23CC4CC(CC(C4)C2)C3)no1 | 25.9 µg/mL | MIC [7]: 27 µg/mL (≈ 98.1 µM)
NC(=O)NCCSc1nc(N)nc(-c2c(Cl)cc3c4c(cccc24)COC3)n1 | 773 µM | –
Cc1cc2ccccc2n1CCNC(=O)c1ccc(-c2nnn[nH]2)cc1 | – | Therm_solubility [3]: 0.257 µM
COc1cnc(-n2cnc(C)n2)c2[nH]cc(C(=O)C(=O)N3CCN(C(=O)c4ccccc4)CC3)c12 | 147 µg/mL | –
CN(C)CCn1cc(C(=O)NC23CC4CC(CC(C4)C2)C3)c(=O)c2ccc(F)cc21 | 5.6 µg/mL | –

Compound | solubility thermodynamic (physchem [1]) | further results
Nc1ncc(-c2nc(N3CCOCC3)nc3c2CCN3C(=O)Nc2ccccc2)cn1 | 3 µg/mL | –
COc1ccc(CNc2c3c(nc4ccc(C#N)cc24)CCN(C(C)=O)C3)cc1Cl | 500 µM | –
CCCCCc1ccc(-c2cc(CCC(=O)O)c3c(=O)n(CC4CCCO4)c(N)nc3c2)cc1 (stereo unspecified) | 0.1 µg/mL | pIC50 (Plasmepsin II): 7.30
Nc1nc2cc(-c3ccc(CCCc4ccccc4)cc3)cc(CCC(=O)O)c2c(=O)n1CC1CCCO1 (stereo unspecified) | – | pIC50 (Plasmepsin II): 4.78; Therm_solubility [3]: 0.17 µg/mL
COc1cc2c(cc1OC)CN(C(=O)/C=C/c1c(-c3ccccc3)n(C)c3ncccc13)CC2 | – | Therm_solubility [3]: 141 µg/mL
NC(=O)Nc1ccc2c(c1)/C(=C/c1ccc[nH]1)C(=O)N2 | 2000 µg/mL | –
COc1cc(NCc2cc3cc(Cl)ccc3[nH]c2=O)ccc1C#N | 0.43 µM | –
COc1cc(NCc2cc3cc(C)c(C)cc3[nH]c2=O)ccc1-n1cnnn1 | 0.04 µM | –
Cc1cc(/C=C/C#N)cc(C)c1Oc1nc(Nc2ccc(CN3CCN(S(C)(=O)=O)CC3)cc2)nc(N)c1Br | 30.9 µg/mL | pEC50 [6]: 8.12
NC(=O)Nc1ccc2c(c1)/C(=C/c1cc(-c3ccccn3)c[nH]1)C(=O)N2 | 29 µg/mL | –
CC1CC(=O)Oc2c1ccc1c2[C@@H](OC(=O)[C@@]23CC[C@@](C)(C(=O)O2)C3(C)C)[C@@H](OC(=O)[C@@]23CC[C@@](C)(C(=O)O2)C3(C)C)C(C)(C)O1 (stereo partly specified) | – | pEC50 [6]: 8.82; logP (physchem [4]): 4.82
Nc1nc2cc(-c3ccc(CCCc4ccccc4)cc3)ccc2c(=O)n1CC1CCC(c2ccccc2)O1 (stereo unspecified) | < 0.01 µg/mL | pIC50 (Plasmepsin II): 5.49
C=CCNc1nc2c(s1)CC(C)(C)[C@H]1[C@H](O)[C@@]3(O)OC[C@@]21[C@@H]1CC[C@H]2C(=C)C(=O)[C@]13[C@@H]2O | 81200 µg/mL | pIC50 (MCF7): 6.70
C=C1C(=O)[C@]23[C@H](O)[C@H]1CC[C@H]2[C@@]12CO[C@]3(O)[C@@H](O)[C@@H]1C(C)(C)Cc1sc(C)nc12 | 4400 µg/mL | pIC50 (MCF7): 5.59
C[C@H]1[C@H](COP(=O)([O-])[O-])OC(=O)N1c1ccc(-c2ccc([C@@H]3CN(C)C(=O)O3)nc2)cc1O.[Na+].[Na+] | 227000 µg/mL | –
CC1c2ccc3c(c2OC(=O)C1CO)[C@@H](OC(=O)[C@@]12CC[C@@](C)(C(=O)O1)C2(C)C)[C@@H](OC(=O)[C@@]12CC[C@@](C)(C(=O)O1)C2(C)C)C(C)(C)O3 (stereo partly specified) | – | pEC50 [6]: 8.40; logP (physchem [4]): 3.62
CN1C(=O)CCC(N2C(=O)c3ccccc3C2=O)C1=O (stereo unspecified) | 276 µg/mL | –
Cc1sc(-c2ccccc2)nc1CCOc1ccc(CC(Nc2ccccc2C(=O)c2ccccc2)C(=O)O)cc1 (stereo unspecified) | 1 µg/mL | –
COCCCc1nc(CCOc2ccc(CC(Nc3ccccc3C(=O)c3ccccc3)C(=O)O)cc2)c(C)s1 (stereo unspecified) | 210 µg/mL | –
CCC1(O)C(=O)OCc2c1cc1n(c2=O)Cc2c-1nc1ccc(O)cc1c2CN(C)C (stereo unspecified) | 1000 µg/mL | –
CCCCCc1ccc(-c2cc(-c3ccc(C(=O)O)cc3)c3c(=O)n(CC4CCC(c5ccccc5)O4)c(N)nc3c2)cc1 (stereo unspecified) | 0.01 µg/mL | pIC50 (Plasmepsin II): 6.13
O=c1nc2n(CCCC(F)(F)F)nc(-c3cccc(C(F)(F)F)c3)nc-2c(=O)n1CCC1CC1 | 200 µM | –

Compound | solubility thermodynamic (physchem [1]) | further results
C=C1C(=O)[C@]23[C@H](O)[C@H]1CC[C@H]2[C@@]12CO[C@]3(O)[C@@H](O)[C@@H]1C(C)(C)Cc1sc(NC)nc12 | 42400 µg/mL | pIC50 (MCF7): 5.89
Cc1nc(N2CCN(c3ncc(OCc4ccncc4C#N)cn3)CC2)no1 | – | logD [2]: 4
CCCOc1ccc(CC(Cc2ccccc2)C(=O)O)cc1CNC(=O)c1ccc(C23CC4CC(CC(C4)C2)C3)cc1 (stereo unspecified) | 1 µg/mL | –
Cc1sc(N2CCNCC2)nc1CCOc1ccc(CC(Nc2ccccc2C(=O)c2ccccc2)C(=O)O)cc1 (stereo unspecified) | 10000 µg/mL | –
O=C1NC(c2ccccc2)(c2ccccc2)C(=O)N1COP(=O)([O-])O.[Na+] | 142000 µg/mL | –
Cc1sc(N2CCOCC2)nc1CCOc1ccc(CC(Nc2ccccc2C(=O)c2ccccc2)C(=O)O)cc1 (stereo unspecified) | 180 µg/mL | –
CCCCCn1cc(C(=O)NC23CC4CC(CC(C4)C2)C3)c(=O)c2ccc(F)cc21 | 0.014 µg/mL | –
CCCCCCCc1c(C)nc2cc(OC)ccc2c1O | 2 µM | logD [2]: 3.69
O=c1cc(-c2c(F)cccc2F)oc2ccc3ccccc3c12 | 153 µg/mL | –
Oc1nc2cc(Cl)c(Cl)c(Cn3cncn3)c2nc1O | 10 µg/mL | –
COc1ccc2c3c(c4cc(OC)c(OC)cc4c2c1)C[C@H]1CCCN1C3 [(-)-ANTOFINE] | – | Therm_solubility [3]: 1 µg/mL
CC(=O)Nc1nc2c(Oc3cc(-c4ccc(C(F)(F)F)cc4)ncn3)cccc2s1 [AMG-517] | 1 µg/mL | –
O=C(NCCN1CCCC1)c1cc(-c2ccc(CN3CCOCC3)cc2)nc2ccc(F)cc12 [CABAMIQUINE] | 216 µM | –
c1cn2cc(-c3ccc4cn[nH]c4c3)nc(Nc3ccc(N4CCOCC4)cc3)c2n1 [ENTOSPLETINIB] | 28 µg/mL | –
Cc1cc(C#N)cc(C)c1Oc1nc(Nc2ccc(C#N)cc2)nc(N)c1Br [ETRAVIRINE] | – | Therm_solubility [3]: 1 µg/mL
COc1cnc(-n2cnc(C)n2)c2c1c(C(=O)C(=O)N1CCN(C(=O)c3ccccc3)CC1)cn2COP(=O)(O)O [FOSTEMSAVIR] | 11000 µg/mL | –
C=C1C(=O)[C@]23[C@H](O)[C@H]1CC[C@H]2[C@@]12CO[C@]3(O)[C@@H](O)[C@@H]1C(C)(C)CC[C@@H]2O [ORIDONIN] | 1290 µg/mL | pIC50 (MCF7): 5.18
O=C1NC(=O)C(c2ccccc2)(c2ccccc2)N1 [PHENYTOIN] | – | Therm_solubility [3]: 20000 µg/mL
Cn1nnc(-c2ccc(-c3ccc(N4C[C@H](COP(=O)(O)O)OC4=O)cc3F)cn2)n1 [TEDIZOLID PHOSPHATE] | 50000 µg/mL | –
Cn1nnc(-c2ccc(-c3ccc(N4C[C@H](CO)OC4=O)cc3F)cn2)n1 [TEDIZOLID] | 136 µg/mL | –
O=C1CCC(N2C(=O)c3ccccc3C2=O)C(=O)N1 (stereo unspecified) [THALIDOMIDE] | 52 µg/mL | –
